We go through 18 compounds from ChEMBL document CHEMBL1165918, “Synthesis and biological activity of N-aroyl-tetrahydro-gamma-carbolines” (Bioorg Med Chem, 2010).

The target of experiment [1] is T1, Prostaglandin G/H synthase 1 (Homo sapiens, UniProt P23219). Briefly: Inhibition of COX1 in human whole blood. The experiment is classed as tissue-based.
The species entered for a further experiment is Homo sapiens. The experiment is described as follows: Selectivity ratio of IC50 for COX2 in human whole blood to IC50 for COX1 in human whole blood. The experiment is classed as tissue-based.
In experiment [2] the test system is MCF7. Briefly: Growth inhibition of human MCF7 cells at 10 uM after 72 hrs by MTT assay. It counts as functional. To be noted: MCF7, 72 h, read-out: GI. In general terms: Formazan colour is commonly taken as a measure of viable cells.
For experiment [3], the system named is L1210. Briefly: Cytotoxicity against mouse L1210 cells after 72 hrs by MTT assay. It counts as functional, cell-based. Conditions: L1210, 72 h.
Experiment [4] has as its system PC-3. Briefly: Growth inhibition of human PC3 cells at 10 uM after 72 hrs by MTT assay. It counts as functional. Conditions: PC-3, 72 h, read-out: GI.
In experiment [5] the test system is L1210. The experiment is described as follows: Growth inhibition of mouse L1210 cells at 10 uM after 72 hrs by MTT assay. It counts as functional. Conditions: L1210, 72 h, read-out: GI.
Experiment [6] deals with T1, Prostaglandin G/H synthase 1. It counts as tissue-based, Blood.
Description: Inhibition of COX1 in human whole blood assessed as inhibition of 12-hydroxyheptadecatrienoic acid production by HPLC method
For experiment [7] the target is unchanged. Briefly: Inhibition of COX1 in human whole blood assessed as inhibition of 12-hydroxyheptadecatrienoic acid production at 10 uM by HPLC method. The experiment is classed as tissue-based.
The target of experiment [8] is T2, Polyunsaturated fatty acid 5-lipoxygenase (Homo sapiens, UniProt P09917).
T2 sequence (P09917 whole entry): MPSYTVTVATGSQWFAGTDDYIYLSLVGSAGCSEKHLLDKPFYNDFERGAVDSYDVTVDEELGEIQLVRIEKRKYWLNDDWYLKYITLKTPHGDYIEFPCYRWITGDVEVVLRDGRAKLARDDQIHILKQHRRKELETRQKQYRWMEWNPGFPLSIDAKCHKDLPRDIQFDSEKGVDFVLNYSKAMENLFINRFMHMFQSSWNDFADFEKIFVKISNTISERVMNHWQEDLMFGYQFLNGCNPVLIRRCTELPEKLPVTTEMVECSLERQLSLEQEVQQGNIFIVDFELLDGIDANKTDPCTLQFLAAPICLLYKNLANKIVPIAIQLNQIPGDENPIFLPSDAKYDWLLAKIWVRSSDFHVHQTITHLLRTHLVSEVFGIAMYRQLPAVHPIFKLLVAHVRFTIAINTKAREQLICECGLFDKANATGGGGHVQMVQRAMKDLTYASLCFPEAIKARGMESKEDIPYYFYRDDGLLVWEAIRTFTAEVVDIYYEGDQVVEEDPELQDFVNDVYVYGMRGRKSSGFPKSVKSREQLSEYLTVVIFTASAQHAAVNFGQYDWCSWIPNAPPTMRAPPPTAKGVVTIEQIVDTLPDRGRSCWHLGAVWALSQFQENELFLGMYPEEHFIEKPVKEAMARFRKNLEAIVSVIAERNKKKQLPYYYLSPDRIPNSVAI

In experiment [9] the target is T2, Polyunsaturated fatty acid 5-lipoxygenase. This is another data set of the same source.
The test system of experiment [10] is MCF7. The experiment is described as follows: cells. To be noted: Homo sapiens, MCF7, 72 h.
Description: Cytotoxicity against human MCF7 cells after 72 hrs by MTT assay
In experiment [11] the target is T3, Prostaglandin G/H synthase 2 (Homo sapiens) (UniProt P35354).
T3 sequence (whole entry): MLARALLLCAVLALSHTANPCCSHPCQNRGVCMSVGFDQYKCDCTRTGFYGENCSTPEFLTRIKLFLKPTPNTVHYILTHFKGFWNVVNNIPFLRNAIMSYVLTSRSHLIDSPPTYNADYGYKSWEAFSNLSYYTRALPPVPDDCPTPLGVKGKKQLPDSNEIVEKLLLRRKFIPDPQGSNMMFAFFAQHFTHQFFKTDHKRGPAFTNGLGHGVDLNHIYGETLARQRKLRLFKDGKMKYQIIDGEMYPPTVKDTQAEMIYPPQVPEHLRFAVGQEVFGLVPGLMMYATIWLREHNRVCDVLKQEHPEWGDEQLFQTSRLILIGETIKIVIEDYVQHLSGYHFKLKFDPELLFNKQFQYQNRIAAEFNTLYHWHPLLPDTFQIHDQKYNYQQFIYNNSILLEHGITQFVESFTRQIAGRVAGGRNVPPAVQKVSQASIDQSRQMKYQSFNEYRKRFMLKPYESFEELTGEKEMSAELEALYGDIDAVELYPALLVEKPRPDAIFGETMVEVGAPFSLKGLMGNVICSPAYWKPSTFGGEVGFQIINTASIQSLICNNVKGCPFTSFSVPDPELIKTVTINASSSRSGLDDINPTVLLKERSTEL
Briefly: Inhibition of COX2 in human whole blood assessed as inhibition of 12-hydroxyheptadecatrienoic acid production at 10 uM by HPLC method. The experiment is classed as tissue-based.

Experiment [12] concerns the target T4, Polyunsaturated fatty acid 5-lipoxygenase (Homo sapiens) (UniProt P09917).
T4 sequence (whole entry): T2 sequence (P09917 whole entry)
It counts as tissue-based. To be noted: Blood, 10 uM.

Experiment [13] relates to PC-3. The experiment is described as follows: cells. Conditions: Homo sapiens, PC-3, 72 h.
Description: Cytotoxicity against human PC3 cells after 72 hrs by MTT assay
Experiment [14] concerns the target T2, Polyunsaturated fatty acid 5-lipoxygenase. Briefly: Inhibition of 5-lipoxygenase in human whole blood. It counts as tissue-based.

T1 sequence (P23219 whole entry): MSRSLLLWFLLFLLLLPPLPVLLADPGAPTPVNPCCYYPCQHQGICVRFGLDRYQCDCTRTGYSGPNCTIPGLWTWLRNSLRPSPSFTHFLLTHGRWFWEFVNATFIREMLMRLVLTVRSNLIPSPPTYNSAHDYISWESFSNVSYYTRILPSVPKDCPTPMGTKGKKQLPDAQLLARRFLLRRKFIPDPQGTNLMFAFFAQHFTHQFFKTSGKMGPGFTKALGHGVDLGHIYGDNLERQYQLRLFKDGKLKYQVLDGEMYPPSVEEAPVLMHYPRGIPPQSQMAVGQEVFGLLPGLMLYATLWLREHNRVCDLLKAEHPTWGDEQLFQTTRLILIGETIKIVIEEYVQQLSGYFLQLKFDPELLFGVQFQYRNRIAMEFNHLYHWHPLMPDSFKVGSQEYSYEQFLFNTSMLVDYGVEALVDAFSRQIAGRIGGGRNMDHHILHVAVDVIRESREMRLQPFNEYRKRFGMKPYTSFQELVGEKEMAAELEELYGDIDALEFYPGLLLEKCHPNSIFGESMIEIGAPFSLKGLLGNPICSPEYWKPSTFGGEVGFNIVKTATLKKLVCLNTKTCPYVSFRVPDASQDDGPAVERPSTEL

For orientation: IC50 means the concentration that inhibits the measured activity by half. In the case of `COC(=O)c1cc2cc(S(C)(=O)=O)ccc2n1Cc1ccc(Cl)cc1`, in experiment [1], the IC50 is more than 10 µM. For the same compound, the Ratio IC50 in the experiment filed under Homo sapiens is less than 0.05.
In the case of `COC1(c2cc(F)cc(OCCCN3CCc4c(c5cc(S(C)(=O)=O)ccc5n4CCCOc4cc(F)cc(C5(OC)CCOCC5)c4)C3)c2)CCOCC1`, the inhibition of growth at 10 µM in the experiment with MCF7 [2] was found to be 36%. Besides, the midpoint of inhibition with L1210 [3], the IC50, lay at 3 µM.
For `COc1ccc2c(c1)c1c(n2C(=O)c2ccccc2)CCNC1`, the inhibition of growth at 10 µM was determined as 0% in the experiment with PC-3 [4], 32% with L1210 [5] and 0% in the experiment with MCF7 [2]. In experiment [6], this compound registered a half-maximal inhibitory concentration (IC50) of 6 µM.
A word on the inhibition: it is the share of the control response that was lost under treatment. As to `COc1ccc2c(c1)c1c(n2C(=O)c2ccc(F)cc2)CCN(CCCOc2cc(F)cc(C3(OC)CCOCC3)c2)C1`, the inhibition of growth at 10 µM with PC-3 [4] amounted to 0%; in the experiment with L1210 [5], 44%; in the experiment on MCF7 [2], 37%. In addition, in experiment [7], the inhibition turned out to be 71.6%. Further, the figures for the IC50 in experiment [8] and in [9] were 58 µM and 59.9 µM, respectively.
Turning to `Cc1ccc(-c2cc(C(F)(F)F)nn2-c2ccc(S(N)(=O)=O)cc2)cc1` [CELECOXIB], the values for the IC50 with MCF7 [10] and in the experiment on L1210 [3] were 50.2 µM and 44 µM, respectively.
Consider `COC1(c2cc(F)cc(OCCCN3CCc4c(c5cc(S(C)(=O)=O)ccc5n4C(=O)c4ccccc4)C3)c2)CCOCC1`, for which the inhibition of growth at 10 µM came to 37% in the experiment on PC-3 [4], 38% with L1210 [5] and 15% with MCF7 [2]. In [6], this compound returned a half-maximal inhibitory concentration (IC50) of 24 µM. Also, the inhibition in experiment [11] turned out to be 8.4%.
`CS(=O)(=O)c1ccc2c(c1)c1c(n2C(=O)c2ccccc2)CCNC1`: the inhibition of growth at 10 µM with PC-3 [4] was determined as 7%; with L1210 [5] it was 0%; in the experiment on MCF7 [2] it was 0%. The same compound gave an IC50 in [6] of 24.4 µM.
As for `COc1ccc2c(c1)c1c(n2C(=O)c2c(Cl)cc(Cl)cc2Cl)CCN(CCCOc2cc(F)cc(C3(OC)CCOCC3)c2)C1`, the results for the inhibition of growth at 10 µM in the experiment with PC-3 [4], in the experiment on L1210 [5] and in the experiment on MCF7 [2] were 0%, 11% and 36%, respectively. Besides, the IC50 in [8] is 45.4 µM; in experiment [9], 55 µM; in [6], 36.7 µM.
As for `COc1ccc2c(c1)c1c(n2C(=O)c2ccc(S(=O)(=O)/N=C/N(C)C)cc2)CCN(CCCOc2cc(F)cc(C3(OC)CCOCC3)c2)C1`, the inhibition of growth at 10 µM in the experiment on PC-3 [4] came to 42%; with MCF7 [2], 21%. Besides, the half-inhibitory concentration (IC50) in experiment [9] was more than 10 µM; in the experiment on L1210 [3], 6 µM. Further, the inhibition in [12] turned out to be 81.4%.
Consider `COc1ccc2c(c1)c1c(n2C(=O)c2ccc(Br)cc2)CCN(CCCOc2cc(F)cc(C3(OC)CCOCC3)c2)C1`, for which the values for the inhibition of growth at 10 µM with PC-3 [4], in the experiment on L1210 [5] and in the experiment on MCF7 [2] were 0%, 42% and 39%, respectively. Moreover, the results for the half-inhibitory concentration (IC50) in [8], in experiment [9] and in experiment [6] were 47.4 µM, 62 µM and 16.5 µM, respectively.
On to `COc1ccc2c(c1)c1c(n2Cc2ccc(S(C)(=O)=O)cc2)CCN(CCCOc2cc(F)cc(C3(OC)CCOCC3)c2)C1`, for which the figures for the concentration for half-maximal inhibition (IC50) with PC-3 [13] and in the experiment with L1210 [3] were 8 µM and 5 µM, respectively. Moreover, the inhibition of growth at 10 µM with MCF7 [2] is 27%.
As to `COc1ccc2c(c1)c1c(n2C(=O)c2cccc(F)c2)CCN(CCCOc2cc(F)cc(C3(OC)CCOCC3)c2)C1`, the inhibition of growth at 10 µM is 44% with PC-3 [4], 40% in the experiment on L1210 [5] and 8% with MCF7 [2]. Besides, the IC50 is 38 µM in experiment [8], 40.5 µM in [9] and 7.8 µM in experiment [6].
Turning to `COc1ccc2c(c1)c1c(n2C(=O)c2ccc(Cl)cc2)CCN(CCCOc2cc(F)cc(C3(OC)CCOCC3)c2)C1`, the IC50 in the experiment on MCF7 [10] is 8 µM; in [8] it was 59.3 µM; in experiment [9], 119 µM; in experiment [6] it was 7.4 µM; in the experiment with L1210 [3] it was 8 µM. The inhibition of growth at 10 µM with PC-3 [4] came out at 9%.
Take `COC1(c2cc(F)cc(OCCCN3CCc4c(c5ccccc5n4C(=O)c4ccccc4)C3)c2)CCOCC1`: the inhibition of growth at 10 µM in the experiment on PC-3 [4] came to 6%; with L1210 [5] it was 24%; with MCF7 [2] it was 30%. For the same compound, the 50% inhibitory concentration (IC50) in [8] is 92.9 µM; in experiment [9], 206 µM; in experiment [6] it was 18.2 µM.
In the case of `COC1(c2cc(F)cc(OCc3cc(-c4ccccc4)n(-c4ccc(S(C)(=O)=O)cc4)n3)c2)CCOCC1`, the half-inhibitory concentration (IC50) in experiment [1] was more than 10 µM; in experiment [14], 0.2 µM.
For `COc1ccc2c(c1)c1c(n2C(=O)c2ccccc2F)CCN(CCCOc2cc(F)cc(C3(OC)CCOCC3)c2)C1`, the inhibition of growth at 10 µM in the experiment with PC-3 [4] is 15%; in the experiment on L1210 [5], 45%; in the experiment on MCF7 [2], 21%. In addition, the inhibition in [7] is 83.5%. Further, the 50% inhibitory concentration (IC50) is 39.3 µM in [8] and more than 10 µM in experiment [9].
Regarding `COc1ccc2c(c1)c1c(n2C(=O)c2ccccc2)CCN(CCCOc2cc(F)cc(C3(OC)CCOCC3)c2)C1`, the inhibition of growth at 10 µM in the experiment on PC-3 [4] is 20%; in the experiment with L1210 [5], 20%; with MCF7 [2], 18%. Besides, the inhibition in [7] turned out to be 84.3%. The IC50 in [8] was 66.4 µM; in [9], 108 µM.
Regarding `COC1(c2cc(F)cc(OCCCN3CCc4c(c5cc(F)ccc5n4Cc4ccc(S(C)(=O)=O)cc4)C3)c2)CCOCC1`, the IC50 with PC-3 [13] was 8 µM; in experiment [8], 29.5 µM; in [9], 24.6 µM; in experiment [6], 180 µM. In addition, the inhibition of growth at 10 µM in the experiment with L1210 [5] is 38%; in the experiment with MCF7 [2] it was 34%.
